For orientation: Ki means the equilibrium dissociation constant of an inhibitor or competing ligand from its target. Read a high Ki as a looser hold on the target.

Sequence of Kappa-type opioid receptor (P41144 whole entry): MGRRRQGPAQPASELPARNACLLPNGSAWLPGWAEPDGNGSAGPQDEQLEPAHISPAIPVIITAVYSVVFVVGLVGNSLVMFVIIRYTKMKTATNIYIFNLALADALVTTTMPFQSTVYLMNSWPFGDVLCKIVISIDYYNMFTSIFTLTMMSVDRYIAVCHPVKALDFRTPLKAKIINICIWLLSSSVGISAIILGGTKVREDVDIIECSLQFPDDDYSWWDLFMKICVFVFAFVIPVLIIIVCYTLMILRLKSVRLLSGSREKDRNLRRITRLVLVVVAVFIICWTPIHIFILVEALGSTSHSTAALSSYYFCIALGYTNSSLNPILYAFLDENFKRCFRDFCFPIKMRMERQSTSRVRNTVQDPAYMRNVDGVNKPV

For this experiment, the target named is Kappa-type opioid receptor (Cavia porcellus, UniProt P41144). Description: ChEBML_92409. From the text:
Affinity at K opioid receptor on membranes prepared from guinea pig cerebellum by [3H]- 69593 displacement.
Compound `CN(C(=O)C1c2ccccc2CCc2ccccc21)[C@H](CN1CC[C@H](O)C1)c1ccccc1` came in with a Ki of 0.02 µM.
Regarding `Cc1ccc(C(C(=O)N(C)[C@H](CN2CC[C@H](O)C2)c2ccccc2)c2ccc(C)cc2)cc1`, the affinity corresponds to a Ki of 0.02 µM.
The same measure for `CN(C(=O)C(c1ccccc1)c1ccccc1)[C@H](CN1CC[C@H](O)C1)c1cccc([N+](=O)[O-])c1`: 0.02 µM.

Source of the values: BindingDB's records for doi:10.1016/S0960-894X(01)80179-7 (1994).
